Measured values reported in patent US20040052828A1, “Consumable product including consumable component and alpha-keto enamine derivatives” (priority 2000, published 2004).

Columns and labels:
Format in all cases: in vivo, human
trained panelists = experiment: Cooling threshold in water, triangle test by trained panelists; details: determined in water
Description: Prior to sensory analysis, the purity of the synthetic taste compounds was checked by GC/MS. Determination of the cooling, as well as the aroma threshold, of the compounds was performed by trained panelists. Nasal odor thresholds (Guth, H.; Grosch, W. J. Am. Oil Chem. Soc. 1993, 70, 513-518), as well as cooling thresholds, were determined by triangle tests using tap water as the solvent. The samples were presented in order of increasing concentrations and the threshold values evaluated in three separate sessions were averaged. The values between individuals and separate sessions differed by not more than one dilution step.

[1] = Tasting of cooling compounds in Vittel mineral water
Description: Solutions of 10%-menthol, 10% 5-MPC and 10% MPF, respectively, in ethanol were diluted with Vittel™ mineral water. The solutions were tasted and compared with pure Vittel™ water.

mouth cavity = experiment: Evaluation of cooling substances in orange juice
Description: Several cooling substances were evaluated in orange juice.

[2] = Cooling threshold in milk chocolate; details: for Cooling effect [mg/100 g chocolate]: cooling threshold in milk chocolate
Description: In an additional experiment, the cooling thresholds of 3-MPC, 5-MPC, MPF, 2(5H)-MPF and 2(5H)-DMPF have been determined in chocolate. […] The ratio for compounds of the invention is typically less than that of menthol, preferably less than 9, more preferably less than about 3. In other embodiments, the cooling threshold to odor threshold ratio is less than about 1 or less than about 0.1.

[3] = test system: skin surface on the inside of the right forearm; experiment: Topical testing of cooling intensity on the forearm; details: scale 0 (no effect) to 5 (very strong)
Description: Topical thresholds of cooling compounds 5-MPF, 2(5H)-DMPF, 2(5H)-MPF and MPF were determined as follows: An aliquot (0.5 mL) of a solution, […], was applied to a circular area (10 cm^2) of the skin surface on the inside of the right forearm, midway between the wrist and the elbow, and were rubbed for 1 min. In parallel, an aliquot (0.5 mL) of pure tap water was applied as the blank onto the skin of the left forearm. After 1 min, the skin was dried. A panel of 10 subjects (male and female) were asked to rank the cooling intensity on a scale from 0 (no effect) to 5 (very strong). The values evaluated in three different sessions at two days were averaged. The values between individuals and separate sessions differed not more than 2 scores.

mouth = experiment: Taste testing of sugar confectionery (candies)
Description: Sugar (100 g) was heated together with water (15 g) in a beaker on a hot plate. After the mixture became a clear solution, the sugar syrup was heated further until it became viscous due to the evaporation of water. Then 5-MPC (20 mg) and MPF (100 mg), respectively, were added. The viscous liquid was then poured into molds (3 g each) and cooled down to room temperature. The candies, which had been formed in the molds, were demolded and used for taste testing.

Application in ice cream = details: 20 mg/kg in ice cream
Description: Full-fat cream (250 g), milk (250 ml) and sugar (100 g) were mixed and stirred until the sugar was dissolved. Then the mixture was poured into an ice cream machine (Il Gelataio Super, Simac Inc., Gessate, Italy) and frozen within 30 minutes while stirring. In the same way, ice cream was prepared with 5-MPC (20 mg/kg). […] The cool refreshing impression of this ice cream persisted much longer than with the unflavored reference compound.

CC1=C(N2CCCC2)C(=O)CO1 [MPF, 5-Methyl-4-(1-pyrrolidinyl)-3(2H)-furanone]
Cooling threshold (trained panelists): 1.5 to 3.0 mg/kg | Flavor: cooling effect ([1]; 400 mg/L in Vittel mineral water): Pronounced cooling effect | cooling effect (mouth cavity; 1000 mg/L in orange juice): pronounced cooling effect | Cooling effect [mg/100 g chocolate] [2]: 0.8-1.5 mg/100 g chocolate | Cooling intensity ([3]; 0.00020 % in tap water): 0 | Cooling intensity ([3]; 0.00039 % in tap water): 0 | Cooling intensity ([3]; 0.00078 % in tap water): 0 | Cooling intensity ([3]; 0.00156 % in tap water): 0 | Cooling intensity ([3]; 0.00313 % in tap water): 0 | Cooling intensity ([3]; 0.00625 % in tap water): 0 | Cooling intensity ([3]; 0.0125 % in tap water): 0 | Cooling intensity ([3]; 0.025 % in tap water): 0 | Cooling intensity ([3]; 0.05 % in tap water): 1 | Cooling intensity ([3]; 0.1 % in tap water): 2 | Cooling intensity ([3]; 0.2 % in tap water): 4 | Cooling intensity ([3]; 0.5 % in tap water): 5 | Cooling intensity ([3]; 1.0 % in tap water): 5 | cooling effect in the mouth (mouth; 100 mg added to syrup of 100 g sugar): pronounced cooling effect

CC1CCC=C(N2CCCC2)C1=O (stereo not drawn) [6-MPCH, 6-Methyl-2-(1-pyrrolidinyl)-2-cyclohexen-1-one]
Cooling threshold (trained panelists): 27 to 45 mg/kg

CC1CCC(C(C)C)C(O)C1 (single isomer, unassigned; (-)) [(−)-Menthol, reference compound]
Cooling threshold (trained panelists): 0.9 to 1.9 mg/kg | Flavor: cooling effect ([1]; 10 mg/L in Vittel mineral water): Pronounced cooling effect, strong | cooling effect (mouth cavity; 20 mg/L in orange juice): strong cooling effect

CC1=C(N2CCCC2)C(=O)CC1 [3-MPC, 3-Methyl-2-(1-pyrrolidinyl)-2-cyclopenten-1-one]
Cooling threshold (trained panelists): 29 to 44 mg/kg | Cooling effect [mg/100 g chocolate] [2]: 38-63 mg/100 g chocolate

COC(=O)C1CCCN1C1=CCC(C)C1=O (stereo not drawn) [5-MMeproC, 5-Methyl-2-(2-methoxycarbonyl-1-pyrrolidinyl)-2-cyclopentene-1-one]
Cooling threshold (trained panelists): 112 to 188 mg/kg

CC1=C(N2CCCC2)C(=O)CC1C (stereo not drawn) [3,4-DMPC, 3,4-Dimethyl-2-(1-pyrrolidinyl)-2-cyclopenten-1-one]
Cooling threshold (trained panelists): 51 to 86 mg/kg

CC1CC=C(N2CCCCC2)C1=O (stereo not drawn) [5-MpipC, 5-Methyl-2-(1-piperidinyl)-2-cyclopenten-1-one]
Cooling threshold (trained panelists): 16 to 24 mg/kg

CC1=C(N2CCCC2)C(=O)C(C)C1 (stereo not drawn) [3,5-DMPC, 3,5-Dimethyl-2-(1-pyrrolidinyl)-2-cyclopenten-1-one]
Cooling threshold (trained panelists): 33 to 54 mg/kg

CCC1CC=C(N2CCCC2)C1=O (stereo not drawn) [5-EPC, 5-Ethyl-2-(1-pyrrolidinyl)-2-cyclopenten-1-one]
Cooling threshold (trained panelists): 27 to 43 mg/kg

CC1=C(N2CCCC2)C(=O)OC1 [2(5H)-MPF, 4-Methyl-3-(1-pyrrolidinyl)-2(5H)-furanone]
Cooling threshold (trained panelists): 0.02 to 0.06 mg/kg | Cooling effect [mg/100 g chocolate] [2]: 0.25-0.5 mg/100 g chocolate | Cooling intensity ([3]; 0.00020 % in tap water): 0 | Cooling intensity ([3]; 0.00039 % in tap water): 1 | Cooling intensity ([3]; 0.00078 % in tap water): 2 | Cooling intensity ([3]; 0.00156 % in tap water): 3 | Cooling intensity ([3]; 0.00313 % in tap water): 5 | Cooling intensity ([3]; 0.00625 % in tap water): 5

CC1=C(N2CCCC2)C(=O)OC1C (stereo not drawn) [2(5H)-DMPF, 4,5-Dimethyl-3-(1-pyrrolidinyl)-2(5H)-furanone]
Cooling threshold (trained panelists): 2.0 to 4.0 mg/kg | Cooling effect [mg/100 g chocolate] [2]: 5.0-7.5 mg/100 g chocolate | Cooling intensity ([3]; 0.00625 % in tap water): 0 | Cooling intensity ([3]; 0.0125 % in tap water): 1 | Cooling intensity ([3]; 0.025 % in tap water): 3 | Cooling intensity ([3]; 0.05 % in tap water): 5 | Cooling intensity ([3]; 0.1 % in tap water): 5 | Cooling intensity ([3]; 0.2 % in tap water): 5 | Cooling intensity ([3]; 0.5 % in tap water): 5 | Cooling intensity ([3]; 1.0 % in tap water): 5

CCN(CC)C1=CCC(C)C1=O (stereo not drawn) [5-MdeaC, 5-Methyl-2-diethylamino-2-cyclopenten-1-one]
Cooling threshold (trained panelists): 12 to 20 mg/kg

CC1=C(N2CCCCC2)C(=O)CC1 [3-MPipC, 3-Methyl-2-(1-piperidinyl)-2-cyclopenten-1-one]
Cooling threshold (trained panelists): 60 to 100 mg/kg

CC1=C(N2CCCC2C(=O)O)C(=O)CC1 (stereo not drawn) [3-MProC, 3-Methyl-2-(2-carboxy-1-pyrrolidinyl)-2-cyclopentene-1-one]
Cooling threshold (trained panelists): 490 to 735 mg/kg

CC1C=C(N2CCCC2)C(=O)C1C (stereo not drawn) [4,5-DMPC, 4,5-Dimethyl-2-(1-pyrrolidinyl)-2-cyclopenten-1-one]
Cooling threshold (trained panelists): 68 to 113 mg/kg

CC1CC=C(N2CCCC2)C1=O (stereo not drawn) [5-MPC, 5-Methyl-2-(1-pyrrolidinyl)-2-cyclopenten-1-one]
Cooling threshold (trained panelists): 4.5 to 9 mg/kg | cooling effect (Application in ice cream): pronounced long lasting cooling effect | cooling effect (mouth cavity; 200 mg/L in orange juice): strong cooling effect | Cooling effect [mg/100 g chocolate] [2]: 2.3-3.7 mg/100 g chocolate | fold higher cooling threshold than 2(5H)-MPF ([2]; in chocolate, compared with 2(5H)-MPF): 8 fold | Cooling intensity ([3]; 0.00020 % in tap water): 0 | Cooling intensity ([3]; 0.00039 % in tap water): 0 | Cooling intensity ([3]; 0.00078 % in tap water): 0 | Cooling intensity ([3]; 0.00156 % in tap water): 0 | Cooling intensity ([3]; 0.00313 % in tap water): 0 | Cooling intensity ([3]; 0.00625 % in tap water): 0 | Cooling intensity ([3]; 0.0125 % in tap water): 0 | Cooling intensity ([3]; 0.025 % in tap water): 0 | Cooling intensity ([3]; 0.05 % in tap water): 0 | Cooling intensity ([3]; 0.1 % in tap water): 0 | Cooling intensity ([3]; 0.2 % in tap water): 1 | Cooling intensity ([3]; 0.5 % in tap water): 3 | Cooling intensity ([3]; 1.0 % in tap water): 5 | cooling effect in the mouth (mouth; 20 mg added to syrup of 100 g sugar): pronounced cooling effect

CC1=C(N2CCCC2)C(=O)C(C)O1 (stereo not drawn) [DMPF, 2,5-Dimethyl-4-(1-pyrrolidinyl)-3(2H)-furanone]
Cooling threshold (trained panelists): 100 to 140 mg/kg

CC1=C(N2CCCC2)C(=O)CCC1 [3-MPCH, 3-Methyl-2-(1-pyrrolidinyl)-2-cyclohexen-1-one]
Cooling threshold (trained panelists): 90 to 150 mg/kg
